For orientation: inhibition means how much of the control response was suppressed. Higher therefore signals a strong effect. A word on the IC50: it is the concentration that gives 50% inhibition. A lower IC50 goes with higher potency.

In experiment [1] the target is T1, NAD-dependent protein deacetylase sirtuin-1 (Homo sapiens) (UniProt Q96EB6).
T1 sequence (whole entry): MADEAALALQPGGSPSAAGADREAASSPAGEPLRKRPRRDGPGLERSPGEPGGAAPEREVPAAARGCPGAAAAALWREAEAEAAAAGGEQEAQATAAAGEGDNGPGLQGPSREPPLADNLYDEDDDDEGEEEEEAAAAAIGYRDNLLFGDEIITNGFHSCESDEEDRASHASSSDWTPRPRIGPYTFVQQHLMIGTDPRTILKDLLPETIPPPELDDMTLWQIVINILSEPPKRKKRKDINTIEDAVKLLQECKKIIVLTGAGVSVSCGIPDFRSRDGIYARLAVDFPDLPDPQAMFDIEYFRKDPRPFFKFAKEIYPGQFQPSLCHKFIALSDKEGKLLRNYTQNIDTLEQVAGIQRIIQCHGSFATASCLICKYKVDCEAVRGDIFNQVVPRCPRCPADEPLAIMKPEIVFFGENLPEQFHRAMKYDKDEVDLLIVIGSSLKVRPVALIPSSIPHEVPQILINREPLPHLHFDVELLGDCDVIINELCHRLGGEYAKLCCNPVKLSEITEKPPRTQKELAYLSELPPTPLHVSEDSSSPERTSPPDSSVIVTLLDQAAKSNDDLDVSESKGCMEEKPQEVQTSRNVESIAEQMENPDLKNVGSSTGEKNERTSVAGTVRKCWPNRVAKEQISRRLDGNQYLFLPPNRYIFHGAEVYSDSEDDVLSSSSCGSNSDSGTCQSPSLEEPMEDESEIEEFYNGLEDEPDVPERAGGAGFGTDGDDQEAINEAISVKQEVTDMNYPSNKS
Kind of experiment: Inhibition of SIRT1 at 200 uM.

The target in experiment [2] is T2, NAD-dependent protein deacetylase sirtuin-2 (Homo sapiens) (UniProt Q8IXJ6).
T2 sequence (whole entry): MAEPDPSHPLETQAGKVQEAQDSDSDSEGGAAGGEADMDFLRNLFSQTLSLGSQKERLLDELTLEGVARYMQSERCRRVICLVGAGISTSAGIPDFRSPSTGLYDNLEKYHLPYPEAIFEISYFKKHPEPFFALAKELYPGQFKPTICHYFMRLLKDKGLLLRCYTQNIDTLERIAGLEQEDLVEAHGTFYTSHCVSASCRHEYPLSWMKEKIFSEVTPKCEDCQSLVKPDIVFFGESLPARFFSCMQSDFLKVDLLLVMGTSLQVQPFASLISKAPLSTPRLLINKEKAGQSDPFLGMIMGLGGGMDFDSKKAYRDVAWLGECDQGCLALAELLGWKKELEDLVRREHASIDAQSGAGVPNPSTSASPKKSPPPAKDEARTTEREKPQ
Put plainly: Inhibition of SIRT2 at 200 uM.

Experiment [3] deals with T3, NAD-dependent protein deacetylase sirtuin-2 (Homo sapiens, UniProt Q8IXJ6).
T3 sequence (Q8IXJ6 whole entry): T2 sequence (whole entry)
Kind of experiment: Inhibition of SIRT2.

Experiment [4] addresses T4, NAD-dependent protein deacetylase sirtuin-1 (Homo sapiens, UniProt Q96EB6).
T4 sequence (Q96EB6 whole entry): T1 sequence (whole entry)
Put plainly: Inhibition of SIRT1.

`CC(C)(NC(=O)/C=C/c1ccc(O)cc1)C(=O)NCCc1c[nH]c2ccc(F)cc12`: the inhibition stood at 7% in experiment [1] and 67.5% in experiment [2]. Moreover, the IC50 in experiment [3] stood at 80 µM.
For the compound `C[C@@H](NC(=O)/C=C/c1ccc(O)cc1)C(=O)NCCc1c[nH]c2ccccc12`, the inhibition in experiment [1] is 3.2%; in experiment [2], 8.5%.
The like results for `NC(=O)C1CCCc2c1[nH]c1ccc(Cl)cc21` (stereo unspecified) were, in that order, 98.9% and 89.4%.
As for `C[C@H](NC(=O)/C=C/c1ccc(O)cc1)C(=O)NCCc1c[nH]c2ccccc12`, the inhibition is 17.7% in experiment [1] and 88.6% in experiment [2]. The compound also gave an IC50 in experiment [3] of 47 µM.
With `CC(C)(NC(=O)/C=C/c1ccc(OCc2ccccc2)cc1)C(=O)NCCc1c[nH]c2ccccc12`, the results for the inhibition in experiment [1] and in experiment [2] were 10.2% and 32.6%, respectively.
`COc1ccc(/C=C/C(=O)NC(C)(C)C(=O)NCCc2c[nH]c3ccccc23)cc1`: the inhibition worked out at 10.3% in experiment [1] and 55.4% in experiment [2]. In experiment [3], this compound yielded an IC50 of 99 µM.
For `CC(C)(NC(=O)/C=C/c1ccc(O)cc1)C(=O)NCCc1c[nH]c2ccccc12`, the inhibition in experiment [1] worked out at 6.6%; in experiment [2], 83.3%. The compound further displayed an IC50 in experiment [3] of 50 µM.
`O=C(/C=C/c1ccc(OCc2ccccc2)cc1)NC1(C(=O)NCCc2c[nH]c3ccccc23)CCNCC1`: the values for the inhibition in experiment [1] and in experiment [2] were 97% and 79.1%, respectively. In addition, the IC50 in experiment [3] turned out to be 63 µM; in experiment [4], 52 µM.
Consider `O=C(/C=C/c1ccc(O)cc1)NCC(=O)NCCc1c[nH]c2ccccc12`, for which the values for the inhibition in experiment [1] and in experiment [2] were 9.9% and 44.3%, respectively.
The compound `O=C(/C=C/c1ccc(OCc2ccc(F)cc2)cc1)NC1(C(=O)NCCc2c[nH]c3ccc(F)cc23)CCNCC1` came in with an inhibition in experiment [1] of 94.1%. The compound further showed an IC50 in experiment [4] of 73 µM.
